# Measured values from patent US20060014723A1, “Anti-parasitic uses of borinic acid complexes” (priority 2004, published 2006).
# Key:
# [1] = test system: P. Berghei; test: In vivo efficacy mouse malaria model; details: 1×/day
# Experimental: Test compounds will be compared to chloroquine, artemisinin, mefloquine as follows: NMRI mice, SPF, females, […]
# From a donor mouse with approximately 30% parasitemia, heparinized blood is taken and diluted in physiological saline to 10^8 parasitized erythrocytes per mL. An aliquot of 0.2 mL (=2×10^7 parasitized erythrocytes) of this suspension is injected intravenously (i.v.) into experimental groups of 4 mice.
# Two-to-four hours post-infection, the experimental groups are treated with a single dose by the subcutaneous or the oral route. The compounds are prepared at an appropriate concentration, as a solution or suspension containing 3% ethanol and 7% Tween 80 or in SSV (standard suspending vehicle): […]
# Twenty-four hours after the last treatment ([…]) blood smears from all animals are prepared and stained with Giemsa. Parasitemia is determined microscopically by counting 400 red blood cells (“rbcs”), for low parasitemias (<1%) up to 4,000 rbc's have to be counted. The difference between the mean value of the control group (taken as 100%) and those of the experimental groups is calculated and expressed as % Reduction where: [formula]
# Additional smears will be taken on day 5 and day 6; and parasitemia will be determined and the activity calculated. Survival time (in days) is recorded, and the mean survival time is calculated. Adverse effects are recorded. Four mice/compound and a minimum of 12 mice/study (vehicle and positive controls run concurrently) are used.
# [2] = test system: T. b. rhodesiense STIB 900; test: African sleeping sickness in vitro screening model (Alamar Blue); format: cell-based, Trypanosoma brucei rhodesiense; details: for IC50: Trypanosoma brucei
# Summary of the method: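 Bloodstream-form trypomastigotes, 8×10^3/well, were grown in supplemented MEM with 15% horse serum, without hypoxanthine, at 37 °C in 5% CO2. They were exposed for 72 h to seven 3-fold dilutions from 90 to 0.123 μg/mL. Resazurin (Alamar Blue) was added for 2 h, fluorescence read at ex 536/em 588 nm, and IC50 taken as the mean of four values.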
# [3] = test system: Trypanosoma cruzi Tulahuen C2C4 strain; test: Chagas disease in vitro screening model (beta-galactosidase strain in L-6 cells); format: cell-based; details: for IC50: Trypanosoma cruzi, TULAHUEN, L6, read-out: T. cruzi IC50
# Summary of the method: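 L-6 rat myoblasts in RPMI 1640/10% FBS at 37 °C were infected with 5×10^3 lacZ-expressing T. cruzi Tulahuen C2C4 trypomastigotes. CPRG/Nonidet substrate was read at 540 nm, and IC50 came from sigmoidal curves.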
# [4] = test system: Leishmania donovani strain MHOM/ET1671L82; test: Leishmaniasis in vitro screening model (axenic amastigotes, Alamar Blue); format: cell-based; details: for IC50: Leishmania donovani, read-out: L. donovani IC50
# Summary of the method: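 Axenic L. donovani amastigotes (10^5 per well) from hamster spleen, grown at 37° C in SM medium pH 5.4 with 10% FBS, 5% CO2, exposed to serial 3-fold compound dilutions (30 to 0.041 μg/mL) for 72 h. Alamar Blue added for 2 h, fluorescence read (ex 536/em 588 nm); IC50 from sigmoidal curve versus control cultures.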
# [5] = test system: P. falciparum K1; test: Malaria in vitro screening model (3H-hypoxanthine incorporation); format: cell-based, Plasmodium falciparum; details: for IC50: Plasmodium falciparum, K1
# Summary of the method: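 Chloroquine/pyrimethamine-resistant P. falciparum K1 in human A+ erythrocytes (0.15% parasitemia, 2.5% hematocrit) was exposed to seven 2-fold compound dilutions in hypoxanthine-free medium at 37 °C, low O2. After 48 h, 0.5 μCi ³H-hypoxanthine was added for 24 h more. IC50 was taken from sigmoidal curves as % of untreated control.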
Compound,T. b. rhodesiense IC50 [2] [µg/mL],T. cruzi IC50 [3] [µg/mL],L. donovani IC50 [4] [µg/mL],P. falciparum IC50 [5] [µg/mL],IC50 [2] [µg/mL],IC50 [3] [µg/mL],IC50 [4] [µg/mL],IC50 [5] [µg/mL],further results
"Fc1cccc(B(Oc2cccc3cccnc23)c2ccc(Cl)cc2)c1 [Compound 11, (4-Chlorophenyl)(3-fluorophenyl) borinic acid quinolin-8-yl ester]",,,,,,,,,"% of Activity ([1]; 4 × 30 mg/kg, s.c.): 42.46%; Mean Survival ([1]; 4 × 30 mg/kg, s.c.): 19.7 days; Parasitized RBC over 100 % of Control ([1]; 4 × 30 mg/kg, s.c.): 57.54%; Parasitized RBC over 100 Mean ([1]; 4 × 30 mg/kg, s.c.): 14.3; % of Activity ([1]; 4 × 100 mg/kg, p.o.): 58.22%; Mean Survival ([1]; 4 × 100 mg/kg, p.o.): 15.0 days; Parasitized RBC over 100 % of Control ([1]; 4 × 100 mg/kg, p.o.): 41.78%; Parasitized RBC over 100 Mean ([1]; 4 × 100 mg/kg, p.o.): 10.4"
N#Cc1ccc(B(Oc2cccc3cccnc23)c2ccc(F)cc2F)cc1 [Compound 98],0.345,4.05,0.59,3.245,,,,,
"Cc1ccc(B(Oc2cccc3cccnc23)c2ccccc2)cc1Cl [Compound 10, (3-Chloro-4-methylphenyl)phenylborinic acid quinolin-8-yl ester]",,,,,0.52,4.2,0.38,1.5,
Fc1cccc(B(Oc2cccc3cccnc23)c2ccc(Cl)c(C(F)(F)F)c2)c1 [Compound 115],0.465,3.6,0.59,3.077,,,,,
Cc1ccc2c(Cl)cc(Cl)c(OB(c3ccc(Cl)cc3)c3ccc(Cl)cc3)c2n1 [Compound 80],1.06,1.315,0.12,1.71,,,,,
"COc1ccc(B(Oc2cccc3cccnc23)c2ccc(Cl)cc2)cc1F [Compound 41, (4-Chlorophenyl)(3-fluoro-4-methoxyphenyl)borinic acid quinolin-8-yl ester]",,,,,0.38,0.935,0.29,1.63,
CN(C)Cc1ccc(B(Oc2cccc3cccnc23)c2cccc(C3=NC(C)(C)CO3)c2)cc1 [Compound 126],0.595,5.05,0.45,4.746,,,,,
Nc1cccc(C(=O)OB(c2ccc(Cl)cc2)c2ccc(Cl)cc2)n1 [Compound 131],7.6,0.0535,0.24,0.6855,,,,,
"Cc1cc(B(Oc2cccc3cccnc23)c2ccc(C#N)cc2)ccc1Cl [Compound 34, (4-Chloro-3-methylphenyl)(4-cyanophenyl)borinic acid quinolin-8-yl ester]",,,,,0.23,0.82,0.07,1.39,
"Fc1cccc(B(Oc2cccc3cccnc23)c2cccc(Cl)c2)c1 [Compound 17, (3-Chlorophenyl)(3-fluorophenyl)borinic acid quinolin-8-yl ester]",,,,,0.18,1.06,0.42,1.77,
"N#Cc1ccc(B(Oc2cccc3cccnc23)c2cc(F)ccc2F)cc1 [Compound 35, (4-Cyanophenyl)(2,5-difluorophenyl)borinic acid quinolin-8-yl ester]",,,,,0.275,0.705,0.38,1.74,
"Clc1ccccc1C=CBOc1cccc2cccnc12 [Compound 36, (2-Chlorophenyl)vinyl borinic acid quinolin-8-yl ester]",,,,,0.18,0.785,0.39,1.5,
